Measurements from patent publication US20240261274A1, “TREATMENT OF MYC-DRIVEN CANCERS WITH GSPT1 DEGRADERS” (MONTE ROSA THERAPEUTICS, INC., priority 2021, published 2024).

Key:
GSPT1 = GSPT1 (Homo sapiens, UniProt P15170+Q96SW2); experiment: GSPT1 degradation by western blotting in NSCLC cell lines (compound 210); assay type: cell-based; design: endogenous in cells; conditions: NCI-H1155 and ABC-1 cells, six hours
Procedure: The anti-proliferative activity of compound 210 was tested on representative N-Myc high and N-Myc low cell lines (NCI-H1155, ABC-1 and EBC-1, NCI-H2023, respectively) following treatment with compound for 72 hours. Cells were sub-cultures as recommended by the providers (ATCC, DSMZ) and incubated at 37° C., 5% CO2. All cells were authenticated and confirmed by Short Tandem Repeat (STR) profiling. Briefly, cells were seeded to the appropriate density to allow logarithmic growth over the assay period in 96-well opaque-walled clear bottom plates (from Corning, Cat. No. 3903, Lot. No. 16419061; 100 μL total volume) and incubated overnight. […] Cell viability was assessed using the CellTiter-Glo assay kit as recommended by the Manufacturer (Promega, Cat. No. G7558, Lot. No. 0000385738) and measurements performed on the EnSpire multimode plate reader (Perkin Elmer). EC50 values were determined using Prism8 (GraphPad) and the asymmetric (five-parameter) equation and least squares fit. GSPT1 levels were assessed in the NCI-H1155 and ABC-1 cell lines by densitometry analysis following treatment with compound 210 for 6 hours and western blotting analysis. […] For chemiluminescence and colorimetric signals “optimal automatic exposure” settings (3×3 binning) were employed while fluorescence was detected using 1-4 seconds exposure time to achieve best GAPDH signals and avoid overexposure. […]

c-Myc = c-Myc levels in multiple myeloma and lymphoma cell lines after Compound 345 (western blot); assay type: cell-based; conditions: 24 hr post treatment
Source text: FIGS. 16A, 16B and 16C: Activity of Compound 345 in the c-Myc high multiple myeloma MM1S cell line. […] GAPDH was used as a loading control. […] Lenalidomide was used as a benchmark. 16C: Antiproliferative activity of Compound 345 (as indicated) following treatment with Compound 345 for 72 hr as assessed by Cell Titer Glo assay.
(§1) FIGS. 18A, 18B and 18C: Activity of Compound 345 in the c-Myc high WSU-DLCL2 lymphoma cell line. […] GAPDH was used as a loading control. 18B: Antiproliferative activity of Compound 345 (as indicated) following treatment with Compound 345 for 72 hr as assessed by Cell Titer Glo assay. […] Mice were dosed daily PO with vehicle or Compound 345 at 3, 10 mg/kg (as indicated). Tumor volumes were measured twice weekly. X-axis represents the number of days for treatment duration; y-axis represents mean tumor volume (in mm^3)±SEM. CHOP was used as a positive control for this model. Drug-free vehicle is represented by black circles; CHOP combination represented by light squares; Compound 345 3 mg/kg represented by triangles; Compound 345 10 mg/kg represented by dark squares.
as §1, with “19A, 19B,” for “18A, 18B”, “19C:” for “18C:”, “DOHH-2” for “WSU-DLCL2”, “19B:” for “18B:”, “model.” for “model. Drug-free vehicle is represented by black circles; CHOP combination represented by light squares; Compound 345 3 mg/kg represented by triangles; Compound 345 10 mg/kg represented by dark squares.”
Western blot analysis performed 24 hr post treatment initiation. GAPDH was used as a loading control. GSPT1 DC50 and Dmax as indicated.

GSPT1, sequence (P15170 whole entry): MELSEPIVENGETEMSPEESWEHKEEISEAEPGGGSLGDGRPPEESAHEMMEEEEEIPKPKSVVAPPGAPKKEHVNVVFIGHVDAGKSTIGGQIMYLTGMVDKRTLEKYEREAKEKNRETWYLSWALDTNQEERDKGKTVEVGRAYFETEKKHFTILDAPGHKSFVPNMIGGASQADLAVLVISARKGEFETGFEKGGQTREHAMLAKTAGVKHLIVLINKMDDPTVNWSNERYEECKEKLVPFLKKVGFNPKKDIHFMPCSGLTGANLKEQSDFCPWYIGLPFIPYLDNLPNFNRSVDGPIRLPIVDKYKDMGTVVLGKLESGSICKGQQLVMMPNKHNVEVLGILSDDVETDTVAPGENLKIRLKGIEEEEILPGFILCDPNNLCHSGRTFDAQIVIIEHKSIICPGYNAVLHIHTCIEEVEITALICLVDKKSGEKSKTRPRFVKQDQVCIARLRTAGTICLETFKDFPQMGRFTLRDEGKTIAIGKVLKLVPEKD
GSPT1, sequence (Q96SW2 whole entry): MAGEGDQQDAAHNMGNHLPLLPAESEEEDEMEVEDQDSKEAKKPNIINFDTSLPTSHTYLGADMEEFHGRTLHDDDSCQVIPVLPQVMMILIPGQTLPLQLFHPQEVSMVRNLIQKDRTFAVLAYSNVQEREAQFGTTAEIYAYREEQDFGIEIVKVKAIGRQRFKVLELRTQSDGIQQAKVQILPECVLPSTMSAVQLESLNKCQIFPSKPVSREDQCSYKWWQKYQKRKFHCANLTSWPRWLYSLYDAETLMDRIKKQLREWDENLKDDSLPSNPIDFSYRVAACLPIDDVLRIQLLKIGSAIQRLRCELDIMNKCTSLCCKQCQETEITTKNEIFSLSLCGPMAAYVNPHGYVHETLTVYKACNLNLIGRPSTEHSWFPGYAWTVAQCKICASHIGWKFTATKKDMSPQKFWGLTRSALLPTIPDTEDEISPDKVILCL
GSPT1, sequence (Q16531 whole entry partner): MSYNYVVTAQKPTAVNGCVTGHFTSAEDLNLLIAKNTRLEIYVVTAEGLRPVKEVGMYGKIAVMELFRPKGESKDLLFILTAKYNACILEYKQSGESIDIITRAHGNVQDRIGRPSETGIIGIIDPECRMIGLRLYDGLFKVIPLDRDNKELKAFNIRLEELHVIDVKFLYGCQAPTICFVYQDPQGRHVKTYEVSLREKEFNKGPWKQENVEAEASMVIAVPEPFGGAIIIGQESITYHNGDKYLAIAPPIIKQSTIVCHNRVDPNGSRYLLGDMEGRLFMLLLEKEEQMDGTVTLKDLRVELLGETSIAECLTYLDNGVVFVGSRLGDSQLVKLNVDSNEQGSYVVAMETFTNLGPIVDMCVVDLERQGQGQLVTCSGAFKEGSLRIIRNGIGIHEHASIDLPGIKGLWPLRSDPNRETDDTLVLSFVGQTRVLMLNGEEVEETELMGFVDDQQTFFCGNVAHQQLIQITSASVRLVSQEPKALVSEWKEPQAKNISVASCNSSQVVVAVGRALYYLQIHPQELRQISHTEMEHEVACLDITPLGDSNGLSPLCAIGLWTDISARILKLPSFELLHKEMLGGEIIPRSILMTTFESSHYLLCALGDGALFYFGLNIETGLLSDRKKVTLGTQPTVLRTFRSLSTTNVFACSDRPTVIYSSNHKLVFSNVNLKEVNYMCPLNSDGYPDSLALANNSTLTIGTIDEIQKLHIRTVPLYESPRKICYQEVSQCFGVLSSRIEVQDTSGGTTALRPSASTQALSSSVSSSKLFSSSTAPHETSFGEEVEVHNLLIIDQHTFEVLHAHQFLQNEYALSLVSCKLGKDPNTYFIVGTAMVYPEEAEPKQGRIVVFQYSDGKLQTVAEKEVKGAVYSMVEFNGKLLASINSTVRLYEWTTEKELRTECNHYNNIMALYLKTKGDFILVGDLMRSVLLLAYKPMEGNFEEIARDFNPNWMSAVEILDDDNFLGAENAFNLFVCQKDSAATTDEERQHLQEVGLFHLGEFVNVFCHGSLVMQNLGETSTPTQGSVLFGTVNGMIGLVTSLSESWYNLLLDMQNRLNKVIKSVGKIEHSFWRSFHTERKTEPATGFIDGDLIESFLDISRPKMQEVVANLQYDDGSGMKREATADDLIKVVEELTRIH

SMILES | extent of GSPT1 degradation (GSPT1) | c-Myc level (c-Myc; DOHH-2 lymphoma cell line) | c-Myc level (c-Myc; MM1S multiple myeloma cell line) | c-Myc level (c-Myc; WSU-DLCL2 lymphoma cell line)
Cc1ccc(NC(=O)OCc2ccc3c(c2)C(=O)N(C2CCC(=O)NC2=O)C3)cc1Cl (stereo not shown) [Compound 210] | Complete degradation of GSPT1 | – | – | –
O=C1CCC(N2Cc3ccc(COC(=O)Nc4cc(OC(F)(F)F)ccc4F)cc3C2=O)C(=O)N1 (stereo not shown) [Compound 345, (2-(2,6-dioxopiperidin-3-yl)-3-oxoisoindolin-5-yl)methyl(2-fluoro-5-(trifluoromethoxy)phenyl)carbamate] | – | downregulation of c-Myc | downregulation of c-Myc | downregulation of c-Myc
